Assay results reported in US20100330200A1, “COMBINATION OF A RETINOID AND A PLATINUM ANTICANCER AGENT” (SIGMA-TAU INDUSTRIE FARMACEUTICHE RIUNITE S.P.A., priority 2006, published 2010).
Values joined by “and” are separate entries in the source; they are usually repeats but may differ in a detail not shown here. Identical values can stand only once. Like-named read-outs stand apart in the source and are kept apart here.

How the values were obtained:
1A9PTX22 = conditions: for LCK (gross log10 cell kill) / TVI % Obs.: 1A9PTX22 s.c.
Source text: (§1) Drug treatment started at different tumor sizes.
(§2) Cisplatin was delivered intravenously every seventh day for three times (q7d×3).
(§3) For statistical comparison of tumor volumes in treated vs. control mice the Student's t test (two-sided) was used.

A2780 ovarian carcinoma = conditions: for LCK (gross log10 cell kill) / TVI % Obs.: A2780 s.c.
Source text: as §1, §2, §3

A2780/DDP = conditions: for LCK (gross log10 cell kill) / TVI % Obs.: A2780/DDP s.c.
Source text: as §1, §2, §3

HOC18 ovarian carcinoma = system: HOC18 ovarian carcinoma
Source text: as §1, §2, §3

[1] = system: MDA-MB231 bone metastases; conditions: for Incidence of ostelytic lesions (%) / Incidence of ostelytic lesions (mice/total) / Osteolytic area mm^2 ± SD / Osteolytic area square pixel ± SD: 29 days after tumor implantation, cisplatin 3.1 mg/kg iv q7dx3; for Incidence of ostelytic lesions (%) / Incidence of ostelytic lesions (mice/total) / Osteolytic area mm^2 ± SD / Osteolytic area square pixel ± SD / frequency of osteolysis in tibias compared with the control group: ST1926 25 mg/kg po qdx2/wx3w; for frequency of osteolysis in tibias compared with the control group: radiographs 29 days from injection, cisplatin 3.1 iv q7dx3
Procedure: A human breast cancer cell line, MDA-MB231 was cultured in DMEM supplemented with 10% FCS and 1% penicillin-streptomycin solution in a humidified atmosphere of 5% CO2 in air. Cultured used for intratibial injection were at subconfluency. Cells (1×10^5) were suspended in 0.1 ml of PBS and injected into the tibia of female BALB/c-nu/nu mice with the use of a 27-gauge needle under the anesthesia ip of ketamine and xylazine chloride.
Animals were housed under a light-dark cycle, keeping temperature and humidity constant. Parameters of the animal rooms were assessed as follows: 22±2° C. temperature, 55±10% relative humidity, about 15-20 filtered air changes/hour and 12 hour circadian cycle of artificial light (7 a.m., 7 p.m.). At request, the environmental conditions were monitored and the data are retained in Animal Housing Archives. Drinking water was supplied ad libitum. Each mouse was offered daily a complete pellet diet (GLP 4RF21, Mucedola) throughout the study. The analytical certificates of animal food and water are retained at Sigma-Tau premises. All animals were weighed before starting the experiment and were subdivided into the different dosage groups. Each cage was identified by a paper tag indicating: cage number, group, date of tumor injection, starting date of treatment, name of the test item, dose and route of administration, date of sacrifice.
Incidence of osteolytic lesions and ostelytic area were evaluated 29 days after tumor implantation.

[2] = system: human ovarian carcinoma xenografts; assay: Panel of human ovarian carcinoma xenografts, statements over several tumors
Source text: as §1, §2

[3] = system: IGROV-1 ovarian carcinoma; assay: i.p. growing IGROV-1 tumor, locoregional treatment, survival; format: in vivo
Procedure: The IGROV-1 ovarian carcinoma line was maintained by serial intraperitoneal passages in healthy mice. Tumor grows as ascites and small solid masses. IGROV-1 ascitic cells were collected and prepared as previously described [Pratesi G., Tortoreto M., Zunino F., Reg. Cancer Treat., 1990; 3:40-43] and 2.5×10^6 cells/mouse (in 0.2 ml of saline) were injected intraperitoneally. Mice developed hemorrhagic and diffuse carcinomatosis and eventually died by 20 to 35 days. Animals were inspected daily and weighed three times a week. The median day of death (median survival time: MST) was considered as the experimental end point.
Experimental groups consisted of seven mice.
The compound was delivered intraperitoneally at a dose of 10 mg/kg, daily for 5 days a week for 4 weeks (qd×5/w×4w), starting the day after cell injection. Drug activity was assessed as increase in life span (ILS) %, i.e. the percentage increase of MST in treated (T) over control (C) mice (T/C×100−100). Mice alive at the end of experiment (day 88) without disease were considered “long term survivors” (LTS).
For statistical comparison, curves reporting the percentage of surviving animals over time were estimated by the Kaplan-Meier product limit method and compared with the log-rank test. The test was two-sided.

[4] = system: FaDu human squamous pharynx carcinoma; assay: FaDu squamous pharynx carcinoma s.c. xenograft; format: in vivo, mouse (human xenograft); conditions: ST1926 25 mg/kg oral qdx2/wx3w, carboplatin 40 mg/kg ip q7dx3, combination: carboplatin 1 h before ST1926
Procedure: The FaDu human squamous pharynx carcinoma cells (3×10^6 tumor cells) were injected sc in the right flank of CD1 nude female mice.

[5] = system: IGROV-1 ovarian carcinoma; conditions: in vivo
in vivo = conditions: female, athymic Swiss nude, mouse, po
[6] = system: IGROV-1 ovarian carcinoma; assay: s.c. growing IGROV-1 tumor, ST1926 doses and schedules
[7] = cisplatin 3.1 mg/kg iv q7dx3, 1st day 2
[8] = HOC18 s.c., cisplatin 3.1 mg/kg iv q7dx3
[9] = HOC18 s.c., cisplatin 4.7 mg/kg iv q7dx3
[10] = ST1926 30 mg/kg oral qdx2/wx3w, 1st day 34
[11] = ST1926 30 mg/kg oral qdx2/wx3w, 1st day 2
[12] = ST1926 45 mg/kg oral qdx2/wx3w, 1st day 2
[13] = HOC18 s.c., ST1926 30 mg/kg oral qdx2/wx3w, 1st day 27
[14] = i.p. growing tumor, 10 mg/kg i.p. qdx5/wx4w

SMILES: N.N.[Cl][Pt][Cl] [Cisplatin, cisplatin]
- LCK (gross log10 cell kill) (1A9PTX22; cisplatin 3.1 mg/kg iv q7dx3): 0.3
- TVI % Obs. (1A9PTX22; cisplatin 3.1 mg/kg iv q7dx3): 38%
- LCK (gross log10 cell kill) (1A9PTX22; cisplatin 4.7 mg/kg iv q7dx3): 0.6
- TVI % Obs. (1A9PTX22; cisplatin 4.7 mg/kg iv q7dx3): 57%
- LCK (gross log10 cell kill) (A2780 ovarian carcinoma; [7]): 0.4
- TVI % Obs. (A2780 ovarian carcinoma; [7]): 40%
- LCK (gross log10 cell kill) (A2780 ovarian carcinoma; cisplatin 4.7 mg/kg iv q7dx3): 1.2
- TVI % Obs. (A2780 ovarian carcinoma; cisplatin 4.7 mg/kg iv q7dx3): 80%
- LCK (gross log10 cell kill) (A2780/DDP; cisplatin 4.7 mg/kg iv q7dx3): 0
- TVI % Obs. (A2780/DDP; cisplatin 4.7 mg/kg iv q7dx3): 15%
- LCK (gross log10 cell kill) (HOC18 ovarian carcinoma; [8]): 1.0
- TVI % Obs. (HOC18 ovarian carcinoma; [8]): 41%
- LCK (gross log10 cell kill) (HOC18 ovarian carcinoma; [9]): >>1.7
- TVI % Obs. (HOC18 ovarian carcinoma; [9]): 81%
- NED (not evidence of disease at the end of the experiment) (HOC18 ovarian carcinoma; HOC18 s.c., cisplatin 4.7 mg/kg iv q7dx3, tumors/total): 1/10
- complete responses (no evidence of disease at the experiment end), tumors (HOC18 ovarian carcinoma; HOC18 tumor, dose groups taken together): 1/10
- Incidence of ostelytic lesions (%) [1]: 71%
- Incidence of ostelytic lesions (mice/total) [1]: 5/7
- Osteolytic area mm^2 ± SD [1]: 4.6 ± 1.9 mm^2
- Osteolytic area square pixel ± SD [1]: 458 ± 190 square pixel
- frequency of osteolysis in tibias compared with the control group [1]: no significant differences
- body weight loss ([2]; optimal doses of cisplatin): around 20%

SMILES: O=C(O)/C=C/c1ccc(-c2ccc(O)c(C34CC5CC(CC(C5)C3)C4)c2)cc1 [ST1926, E-4-(3-(1-adamantyl)-4-hydroxyphenyl)cinnamic acid]
- LCK (gross log10 cell kill) (1A9PTX22; [10]): 0.3
- TVI % Obs. (1A9PTX22; [10]): 35%
- BWL % (highest) (1A9PTX22; in vivo, 30 mg/kg): 10%
- LCK (gross log10 cell kill) (A2780 ovarian carcinoma; [11]): 0.4
- TVI % Obs. (A2780 ovarian carcinoma; [11]): 40%
- BWL % (highest) (A2780 ovarian carcinoma; in vivo, 30 mg/kg): 5%
- LCK (gross log10 cell kill) (A2780/DDP; [12]): 0.8
- TVI % Obs. (A2780/DDP; [12]): 41%
- BWL % (highest) (A2780/DDP; in vivo, 45 mg/kg): 13%
- LCK (gross log10 cell kill) (HOC18 ovarian carcinoma; [13]): 0.4
- TVI % Obs. (HOC18 ovarian carcinoma; [13]): 37%
- BWL % (highest) (HOC18 ovarian carcinoma; in vivo, 30 mg/kg): 3%
- survival time over control mice ([3]; i.p. growing IGROV-1, 10 mg/kg qdx5/wx4 weeks): significantly (P<0.01) increased
- ILS (increase in life span % in treated over control mice) [3, 14]: 91%
- Tox (No. of dead mice/total no. of mice) [3, 14]: 0/7
- LTS (long term survivors at the end of experiments, day 88) ([3]; i.p. growing tumor, 10 mg/kg i.p. qdx5/wx4w, 10 mg/kg): 2 out of 7 and 2/7
- TVI [4]: 35%
- Incidence of ostelytic lesions (%) [1]: 63%
- Incidence of ostelytic lesions (mice/total) [1]: 5/8
- Osteolytic area mm^2 ± SD [1]: 3.1 ± 1.0 mm^2
- Osteolytic area square pixel ± SD [1]: 310 ± 106 square pixel
- tolerability in tumor-bearing mice ([1]; in vivo, po, 25 mg/kg): well-tolerated
- frequency of osteolysis in tibias compared with the control group [1]: no significant differences
- TV inhibition, all the tumors investigated ([2]; ST1926 30 or 45 mg/kg per os qdx2/w for 2 or 3 weeks): ≤ 50%
- BWL (body weight loss %, highest) ([5]; 2 mg/kg): 12%
- BWL (body weight loss %, highest) ([5]; 20 mg/kg): 25%
- MTD (in vivo): 15 mg/kg
- LCK ([6]; 15 mg/kg oral qdx2/wx2w): 0.1
- TVI % ([6]; 15 mg/kg oral qdx2/wx2w): 39%
- LCK ([6]; 15 mg/kg oral qdx5/wx3w): 0.4
- TVI % ([6]; 15 mg/kg oral qdx5/wx3w): 52%
- LCK ([6]; 5 × 2 mg/kg oral qdx5/wx4w): 0.3
- TVI % ([6]; 5 × 2 mg/kg oral qdx5/wx4w): 35%

SMILES: N.N.O=C([O-])C1(C(=O)[O-])CCC1.[Pt+2] [carboplatin, reference compound]
- TVI [4]: 52%
